Test results reported in ChEMBL document CHEMBL3608259, “Carbonic Anhydrase Glycoinhibitors belonging to the Aminoxysulfonamide Series” (ACS Med Chem Lett, 2015).

Target: Carbonic anhydrase 9 (Homo sapiens, UniProt Q16790)
Description: Inhibition of human recombinant carbonic anhydrase-9 catalytic domain by stopped-flow CO2 hydration assay

Row | SMILES | Ki
1 | NS(=O)(=O)ONC(=O)OCc1ccccc1 | 57 nM
2 | NOS(=O)(=O)NC(=O)OCc1ccccc1 | 77 nM
3 | CC(=O)OC[C@H]1OC(NS(=O)(=O)ON)C=C[C@H]1OC(C)=O (mixture of isomers) | 75 nM
4 | CC(=O)O[C@@H]1C=CC(NS(=O)(=O)ON)OC1 (mixture of isomers) | 86 nM
5 | NOS(=O)(=O)NC1C=C[C@H](O)CO1 (mixture of isomers) | 91 nM

Further compounds by falling Ki, results first:

Row | Ki | SMILES
6 | 90 nM | CC(=O)OC[C@H]1OC(NS(=O)(=O)ON)C=C[C@@H]1OC(C)=O (mixture of isomers)
7 | 86 nM | CC(=O)O[C@@H]1C=CC(NS(=O)(=O)ON)O[C@H]1C (mixture of isomers)
8 | 85 nM | NOS(=O)(=O)NC1C=C[C@H](O)[C@@H](CO)O1 (mixture of isomers)
9 | 75 nM | CC(=O)O[C@H]1C=CC(NS(=O)(=O)ON)OC1 (mixture of isomers)
10 | 74 nM | NOS(=O)(=O)NC1C=C[C@@H](O)CO1 (mixture of isomers)
11 | 61 nM | NOS(=O)(=O)NC1C=C[C@@H](O)[C@@H](CO)O1 (mixture of isomers)
12 | 61 nM | C[C@@H]1OC(NS(=O)(=O)ON)C=C[C@H]1O (mixture of isomers)
